From patent US10112899B2 (ViiV HEALTHCARE UK LIMITED, priority 2014, dated 2018) come the findings set out here.

The assay concerns HIV in the HTLV-1 transformed cell line MT-4. Description: organism not typed. The assay is classed as cell-based. The following applies: MT4, 96 h, MT-4 cells; luciferase/cell titer glo readout after 96 hours; 10 point dose response.
With `Cc1c(-c2c(C)c3c(c(C)c2[C@H](OC(C)(C)C)C(=O)O)CN(C(=O)Nc2cccc(F)c2)C3)cc(F)c2c1CCCO2` (atropisomer, axis not shown; (M)) [Example 210, (S)-2-(tert-butoxy)-2-((M)-6-(8-fluoro-5-methylchroman-6-yl)-2-((3-fluorophenyl)carbamoyl)-4,7-dimethylisoindolin-5-yl)acetic acid], it took 14 nM to reach half-maximal inhibition (IC50).

For `Cc1c2c(c(C)c([C@H](OC(C)(C)C)C(=O)O)c1-c1ccc3c4c(ccnc14)CCO3)CN(C(=O)c1cccc(F)c1)C2` [Example 299, (2S)-2-(tert-butoxy)-2-(6-(2,3-dihydropyrano[4,3,2-de]quinolin-7-yl)-2-(3-fluorobenzoyl)-4,7-dimethylisoindolin-5-yl)acetic acid], the IC50 was determined as 14 nM.

`Cc1c(-c2c(C)c3c(c(C)c2[C@H](OC(C)(C)C)C(=O)O)CN(C(=O)c2cccc4ccoc24)C3)cc(F)c2c1CCCO2` (atropisomer, axis not shown; (M)) [Example 169, (S)-2-((M)-2-(benzofuran-7-carbonyl)-6-(8-fluoro-5-methylchroman-6-yl)-4,7-dimethylisoindolin-5-yl)-2-(tert-butoxy)acetic acid]: 2 nM corresponded to half-maximal inhibition (IC50).

Compound `Cc1ccc(-c2c(C)c3c(c(C)c2[C@H](OC(C)(C)C)C(=O)O)CN(C(=O)NCC2CCCCC2)C3)cc1` [Example 58, (2S)-2-(tert-butoxy)-2-{2-[(cyclohexylmethyl)carbamoyl]-4,7-dimethyl-6-(4-methylphenyl)-2,3-dihydro-1H-isoindol-5-yl}acetic acid] returned an IC50 of 350 nM.

In turn, `Cc1c(-c2c(C)c3c(c(C)c2[C@H](OC(C)(C)C)C(=O)O)CN(C(=O)c2cccc4c2OCO4)C3)cc(F)c2c1NCCO2` [Example 310, (2S)-2-(2-(benzo[d][1,3]dioxole-4-carbonyl)-6-(8-fluoro-5-methyl-3,4-dihydro-2H-benzo[b][1,4]oxazin-6-yl)-4,7-dimethylisoindolin-5-yl)-2-(tert-butoxy)acetic acid] showed an IC50 of 18 nM.

For `Cc1ccc(-c2c(C)c3c(c(C)c2[C@H](OC(C)(C)C)C(=O)O)CN(C(=O)NC2CCC2)C3)cc1` [Example 70, (2S)-2-(tert-butoxy)-2-[2-(cyclobutylcarbamoy)-4,7-dimethyl-6-(4-methylphenyl)-2,3-dihydro-1H-isoindol-5-yl]acetic acid], the IC50 was 34 nM.

`COc1ccc(C)c(C(=O)N2Cc3c(C)c(-c4ccc(C)cc4)c([C@H](OC(C)(C)C)C(=O)O)c(C)c3C2)c1` [Example 249, (S)-2-(tert-butoxy)-2-(2-(5-methoxy-2-methylbenzoyl)-4,7-dimethyl-6-(p-tolyl)isoindolin-5-yl)acetic acid] came in with a half-maximal inhibitory concentration (IC50) of 5 nM.

With `COc1cc(C)ccc1C(=O)N1Cc2c(C)c(-c3cc(F)c4c(c3C)CCCO4)c([C@H](OC(C)(C)C)C(=O)O)c(C)c2C1` (atropisomer, axis not shown; (M)) [Example 200, (S)-2-(tert-butoxy)-2-((M)-6-(8-fluoro-5-methylchroman-6-yl)-2-(2-methoxy-4-methylbenzoyl)-4,7-dimethylisoindolin-5-yl)acetic acid], the IC50 amounted to 11 nM.

Compound `Cc1ccc(-c2c(C)c3c(c(C)c2[C@H](OC(C)(C)C)C(=O)O)CN(C2CCC[C@@H](C)C2)C3)cc1` (stereo partly drawn) [Example 32, (2S)-2-(tert-butoxy)-2-(4,7-dimethyl-2-((3R)-3-methylcyclohexyl)-6-(p-tolyl)isoindolin-5-yl)acetic acid] yielded an IC50 of 723 nM.

Consider `Cc1ccc(-c2c(C)c3c(c(C)c2[C@H](OC(C)(C)C)C(=O)O)CN(C(=O)C2CCC2)C3)cc1` [Example 228, (S)-2-(tert-butoxy)-2-(2-(cyclobutanecarbonyl)-4,7-dimethyl-6-(p-tolyl)isoindolin-5-yl)acetic acid], for which the IC50 is 13 nM.
